Values of other authors as cited in patent US8835486B2, “Pharmaceutical formulation containing an HMG-COA reductase inhibitor and method for the preparation thereof” (priority 2006, dated 2014).

- solubility in water: > 50 mg/mL
Compound: CC(C)n1c(/C=C/C(O)CC(O)CC(=O)O)c(-c2ccc(F)cc2)c2ccccc21 (stereo not shown) [Fluvastatin]
